Patent publication US5171573A, “4^G -alpha-D-glucopyranosyl rutin, and its preparation and uses” (Kabushiki Kaisha Hayashibara Seibutsu Kagaku Kenkyujo, priority 1989, dated 1992)
≈ marks a conversion by molar mass, not a printed value.

What was measured:
[1] = Physical properties (hygroscopicity, acidity in aqueous solution); assay type: physicochemical
[2] = tested on: alpha-glucosidase derived from pig liver; experiment: Hydrolysis using an alpha-glucosidase derived from pig liver; assay type: biochemical
Description: ii) Hydrolysis using an alpha-glucosidase derived from pig liver yields 1 mole of glucose per mole of rutin.

[3] = Solubility in solvents / water-solubility; assay type: physicochemical
Protocol: Soluble in methanol and ethanol. […] One ml water dissolves about 4.3 g of the present substance at 25° C. Only 1 g rutin (control) dissolves in 8 liters of water.

[4] = Antioxidant activity on powdered peanut butter (peroxide value during standing at 35° C.)
Protocol: 4^G -Alpha-D-glucopyranosyl rutin was tested for antioxidant activity on powdered peanut butter which is used an example of fatty food substances highly susceptive to oxidation. […] The mixture was placed in a tray, sealed, solidified by allowing it to stand at 35° C. for 1 day, and prepared into a powder which was then placed in aluminum cups and allowed to stand in a 35° C. incubator without sealing. During the standing, the contents in the aluminum cups were periodically checked for their peroxide value. […] As the control, a group with no antioxidant was tested similarly as above.

7-week old dd mice = experiment: Acute toxicity, oral, 7-week old dd mice
[5] = Stability in aqueous solution; assay type: physicochemical; conditions: pH 3-7, aqueous solution
[6] = ambient temperature, prior art; cited from earlier work

C[C@@H]1O[C@@H](OC[C@H]2O[C@@H](Oc3c(-c4ccc(O)c(O)c4)oc4cc(O)cc(O)c4c3=O)[C@H](O)[C@@H](O)[C@@H]2O[C@H]2O[C@H](CO)[C@@H](O)[C@H](O)[C@H]2O)[C@H](O)[C@H](O)[C@H]1O [4^G -alpha-D-glucopyranosyl rutin]
acidity in aqueous solution ([1]; aqueous solution): Neutral or slightly acidic | hygroscopicity / deliquescence ([1]; powder, purity about 99.8%): Non-hygroscopic and non-deliquescent | glucose yielded on enzymatic hydrolysis [2]: 1 mole of glucose per mole of rutin | Solubility in solvent: 0.1N hydrochloric acid [3]: Readily soluble | Solubility in solvent: 0.1N sodium hydroxide [3]: Readily soluble | Solubility in solvent: acetic acid [3]: Readily soluble | Solubility in solvent: chloroform [3]: Hardly soluble | Solubility in solvent: ethanol [3]: Soluble | Solubility in solvent: ethyl acetate [3]: Hardly soluble | Solubility in solvent: methanol [3]: Soluble | Solubility in solvent: water [3]: Readily soluble | solubility improved as compared to that of rutin [3]: about thirty thousand | solubility ([3]; water): ~4300 mg/mL (≈ 5570 mM) | peroxide value ([4]; 0 days): 1.78 meq/kg | peroxide value ([4]; 8 days): 5.53 meq/kg | peroxide value ([4]; 27 days): 14.6 meq/kg | peroxide value ([4]; 42 days): 23.4 meq/kg | peroxide value ([4]; 55 days): 32.5 meq/kg | acute toxicity, in words (7-week old dd mice; 7-week old dd mice, powder of Example A-3): extremely low in toxicity | acute toxicity: dose up to which no mouse died (7-week old dd mice; 7-week old dd mice, powder of Example A-3, higher dose was difficult): > 5 g | acute toxicity, in words (7-week old dd mice; dd mice, high-purity powder of Example A-4, same result as Example A-3 powder): extremely low | Stability in aqueous solution [5]: Superiorily stable

C[C@@H]1O[C@@H](OC[C@H]2O[C@@H](Oc3c(-c4ccc(O)c(O)c4)oc4cc(O)cc(O)c4c3=O)[C@H](O)[C@@H](O)[C@@H]2O)[C@H](O)[C@H](O)[C@H]1O [rutin]
water-solubility [6]: about 0.01 w/v % | Solubility in 8 liters of water ([3]; 8 liters of water (control)): 1 g
